Source: patent US20060100187A1, “Synergistic combinations of macrolide t-cell modulator or immunosuppressant and a retinoid” (priority 2003, published 2006)

What was measured:
[1] = system: allogeneic kidney transplantation; settings: oral administration; cited from earlier work
[2] = system: DNFB-elicited allergic contact dermatitis (contact hypersensitivity reaction); settings: for Efficacy, global mean of differences in scores of untreated and treated test sites: erythema and induration scored 24 hours after DNFB challenge, 80 mg formulation topically at 30 minutes and 6 hours after challenge, 1% Elidel cream, 0.1% Zorac gel; for Efficacy %, single drug treatment with pimecrolimus set to 100%: relative to pimecrolimus/pimecrolimus, topical at 30 minutes and 6 hours after challenge, scored at 24 hours
Protocol: 12 days before elicitation of ACD, 17 male domestic pigs receive 500 μl of 10% 2,4-dinitrofluorobenzene (DNFB) dissolved in dimethylsulfoxide/acetone/olive oil (1:5:3 v/v/v) epicutaneously in divided volumes onto the base of both ears and onto both groins (100 μl/site) for sensitization. The challenge reaction is elicited with 15 μl of DNFB 1.0% on test sites (7 cm^2 in size) arranged on both sides of the shaved dorsolateral back.
The test sites on the right dorsolateral side are treated with 80 mg formulation twice whereas the left controlateral test sites remain untreated for comparison. The test sites are treated 30 minutes after challenge, followed by the second application at 6 hours of the same drug or, in case of combination, the other drug.

C=CC[C@@H]1/C=C(\C)C[C@H](C)C[C@H](OC)[C@H]2O[C@@](O)(C(=O)C(=O)N3CCCC[C@H]3C(=O)O[C@H](/C(C)=C/[C@@H]3CC[C@@H](O)[C@H](OC)C3)[C@H](C)[C@@H](O)CC1=O)[C@H](C)C[C@@H]2OC [tacrolimus]
minimum effective dose (MED) [1]: 14 mg/kg

CCOC(=O)c1ccc(C#Cc2ccc3c(c2)C(C)(C)CCS3)nc1 [tazarotene]
Efficacy, global mean of differences in scores of untreated and treated test sites [2]: 2.96
Efficacy %, single drug treatment with pimecrolimus set to 100% [2]: 89%

{[1E-(1R,3R,4S)]}1R,9S,12S, 13R,14S,17R,18E,21S,23S,24R,25S,27R}-12-[2-(4-chloro-3-methoxycyclohexyl)-1-methylvinyl]-17-ethyl-1,14-dihydroxy-23,25-dimethoxy-13,19,21,27-tetramethyl-11, 28,dioxa-4-azatricyclo [22.3.1.0(4,9)]octacos-18-ene-2,3,10,16-tetraone [pimecrolimus]
superiority in comparison with tazarotene/tazarotene treatment ([2]; difference of relative efficacy %): 11%
Efficacy, global mean of differences in scores of untreated and treated test sites [2]: 3.34
Efficacy %, single drug treatment with pimecrolimus set to 100% [2]: 100%
inhibition of the contact hypersensitivity reaction ([2]; single drug treatment, two topical applications, scored 24 hours after challenge): 57%
